Measurements taken from patent US20120283296A1, “PYRROLOPYRAZOLES FOR TREATING CNS DISORDERS” (aFRAXis, Inc., priority 2009, published 2012).
Read-outs that look alike come from different tables or passages of the source.

Assays:
Test in all cases: Competitive binding (test PAK inhibitor affinity) assay, phage-displayed kinase vs immobilized staurosporine
PAK4 = PAK4 (Homo sapiens, UniProt O96013)
PAK7 = PAK7 (Homo sapiens, UniProt Q9P286)
PAK2 = PAK2 (Homo sapiens, UniProt Q13177)
PAK1 = PAK1 (Homo sapiens, UniProt Q13153)
Chain of PAK1 (Q13153 whole entry): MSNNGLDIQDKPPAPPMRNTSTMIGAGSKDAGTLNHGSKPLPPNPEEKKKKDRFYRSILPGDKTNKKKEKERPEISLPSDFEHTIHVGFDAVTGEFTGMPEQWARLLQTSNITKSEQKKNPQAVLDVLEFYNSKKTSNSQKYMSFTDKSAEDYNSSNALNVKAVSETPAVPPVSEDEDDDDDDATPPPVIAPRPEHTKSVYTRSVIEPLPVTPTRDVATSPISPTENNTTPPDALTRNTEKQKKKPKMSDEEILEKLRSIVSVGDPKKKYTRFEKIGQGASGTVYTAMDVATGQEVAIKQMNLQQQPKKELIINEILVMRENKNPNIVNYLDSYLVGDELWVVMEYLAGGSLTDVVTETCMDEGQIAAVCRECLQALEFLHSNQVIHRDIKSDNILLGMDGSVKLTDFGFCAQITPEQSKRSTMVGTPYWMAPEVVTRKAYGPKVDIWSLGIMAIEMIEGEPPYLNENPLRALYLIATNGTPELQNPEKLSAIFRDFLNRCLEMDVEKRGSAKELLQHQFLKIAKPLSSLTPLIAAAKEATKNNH

PAK6 = PAK6 (Homo sapiens, UniProt Q9NQU5)
Chain of PAK6 (Q9NQU5 whole entry): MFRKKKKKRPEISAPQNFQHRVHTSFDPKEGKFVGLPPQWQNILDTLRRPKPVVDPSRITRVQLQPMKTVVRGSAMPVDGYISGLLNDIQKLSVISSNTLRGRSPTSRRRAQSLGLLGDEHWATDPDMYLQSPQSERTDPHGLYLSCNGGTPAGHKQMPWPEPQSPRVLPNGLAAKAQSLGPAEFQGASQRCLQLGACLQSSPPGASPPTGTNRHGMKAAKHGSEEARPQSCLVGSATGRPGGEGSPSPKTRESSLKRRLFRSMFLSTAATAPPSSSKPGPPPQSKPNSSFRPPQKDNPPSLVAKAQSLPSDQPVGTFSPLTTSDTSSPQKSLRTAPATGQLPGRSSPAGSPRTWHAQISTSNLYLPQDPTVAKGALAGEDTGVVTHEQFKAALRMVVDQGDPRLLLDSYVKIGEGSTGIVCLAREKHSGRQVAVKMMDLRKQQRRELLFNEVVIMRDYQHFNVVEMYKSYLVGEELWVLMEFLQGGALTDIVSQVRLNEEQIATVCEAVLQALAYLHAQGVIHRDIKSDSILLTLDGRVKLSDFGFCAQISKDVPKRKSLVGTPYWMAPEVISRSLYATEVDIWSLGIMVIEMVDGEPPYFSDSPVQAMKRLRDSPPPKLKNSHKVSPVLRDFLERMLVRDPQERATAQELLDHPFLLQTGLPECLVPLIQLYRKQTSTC

Chain of PAK2 (Q13177 whole entry): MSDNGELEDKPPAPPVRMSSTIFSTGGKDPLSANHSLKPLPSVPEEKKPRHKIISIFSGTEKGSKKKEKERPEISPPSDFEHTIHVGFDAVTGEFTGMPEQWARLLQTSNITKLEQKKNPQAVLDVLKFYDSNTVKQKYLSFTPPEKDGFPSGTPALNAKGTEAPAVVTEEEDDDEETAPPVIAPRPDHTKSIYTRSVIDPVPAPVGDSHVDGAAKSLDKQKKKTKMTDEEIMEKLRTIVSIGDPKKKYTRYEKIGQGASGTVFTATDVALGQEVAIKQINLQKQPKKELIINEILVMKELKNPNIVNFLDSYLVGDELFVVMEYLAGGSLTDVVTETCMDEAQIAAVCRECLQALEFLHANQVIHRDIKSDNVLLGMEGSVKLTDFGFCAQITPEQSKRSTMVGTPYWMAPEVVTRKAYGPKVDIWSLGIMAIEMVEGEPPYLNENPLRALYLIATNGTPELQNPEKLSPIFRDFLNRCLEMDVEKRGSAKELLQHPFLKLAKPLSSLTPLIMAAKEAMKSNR
Chain of PAK7 (Q9P286 whole entry): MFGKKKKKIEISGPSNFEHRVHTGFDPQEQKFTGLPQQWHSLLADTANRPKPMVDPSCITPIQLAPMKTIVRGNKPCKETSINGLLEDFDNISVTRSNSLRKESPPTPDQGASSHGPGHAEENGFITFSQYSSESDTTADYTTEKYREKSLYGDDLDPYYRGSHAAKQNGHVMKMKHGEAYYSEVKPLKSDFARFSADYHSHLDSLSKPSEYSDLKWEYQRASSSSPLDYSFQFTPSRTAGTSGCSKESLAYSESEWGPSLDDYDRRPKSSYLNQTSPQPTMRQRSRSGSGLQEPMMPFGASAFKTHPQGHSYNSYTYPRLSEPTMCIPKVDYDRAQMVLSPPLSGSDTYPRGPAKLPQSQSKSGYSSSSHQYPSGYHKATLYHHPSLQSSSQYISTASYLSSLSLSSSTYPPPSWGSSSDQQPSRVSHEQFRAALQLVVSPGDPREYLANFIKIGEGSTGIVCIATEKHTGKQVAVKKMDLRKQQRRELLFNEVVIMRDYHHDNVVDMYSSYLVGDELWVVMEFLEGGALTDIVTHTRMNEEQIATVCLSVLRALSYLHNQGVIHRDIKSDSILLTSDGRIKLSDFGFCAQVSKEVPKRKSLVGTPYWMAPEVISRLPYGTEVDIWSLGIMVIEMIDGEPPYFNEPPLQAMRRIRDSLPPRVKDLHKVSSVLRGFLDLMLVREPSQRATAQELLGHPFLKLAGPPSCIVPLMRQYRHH
Chain of PAK4 (O96013 whole entry): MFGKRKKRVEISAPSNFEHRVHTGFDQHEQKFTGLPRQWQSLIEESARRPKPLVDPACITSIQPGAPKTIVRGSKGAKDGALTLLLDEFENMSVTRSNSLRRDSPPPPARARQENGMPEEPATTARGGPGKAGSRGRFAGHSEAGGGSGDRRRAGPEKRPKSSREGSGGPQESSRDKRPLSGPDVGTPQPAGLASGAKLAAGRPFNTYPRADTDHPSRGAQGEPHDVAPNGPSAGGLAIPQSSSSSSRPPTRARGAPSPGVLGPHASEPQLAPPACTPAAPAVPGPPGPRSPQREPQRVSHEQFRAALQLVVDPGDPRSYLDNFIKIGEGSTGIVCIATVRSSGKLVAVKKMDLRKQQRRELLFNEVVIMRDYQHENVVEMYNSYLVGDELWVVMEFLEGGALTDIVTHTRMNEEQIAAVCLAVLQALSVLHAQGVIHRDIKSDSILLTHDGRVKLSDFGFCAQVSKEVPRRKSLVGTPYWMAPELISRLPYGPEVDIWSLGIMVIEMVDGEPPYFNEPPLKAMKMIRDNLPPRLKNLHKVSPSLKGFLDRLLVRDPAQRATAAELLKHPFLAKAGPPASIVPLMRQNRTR

Kd (PAK4)	Kd (PAK7)	Kd (PAK2; read-out: Kd)	Kd (PAK1; read-out: Kd)	Compound	Kd (PAK6)	Kd (PAK2)	Kd (PAK1)
≥ 10 µM	≥ 10 µM	≥ 10 µM	< 5 µM	CCOc1cc2ncc(C#N)c(Nc3ccc(F)c(Cl)c3)c2cc1NC(=O)/C=C/CN(C)C [EKB-569]	≥ 10 µM		
				Nc1nc(Nc2ccc(S(N)(=O)=O)cc2)nn1C(=O)c1c(F)cccc1F [JNJ-7706621]	< 5 µM	≥ 10 µM	≥ 10 µM
